In patent US20160222056A1, “SUBSTITUTED PHENYLALANINE DERIVATIVES” (BAYER PHARMA AKTIENGESELLSCHAFT, priority 2013, published 2016):
Where a name gives a salt, the structure may show the parent alone.

Columns and labels:
Type in all cases: biochemical
human factor XIa = target: T1, human factor XIa (Homo sapiens, UniProt P03951); assay: Measurement of FXIa inhibition (fluorogenic peptide substrate); conditions: human factor XIa from Kordia, substrate Boc-Glu(OBzl)-Ala-Arg-AMC, 30 min at 22° C.; read-out: IC50 (FXIa inhibition)
T1 construct: purchased Kordia
T1 sequence (P03951 388-625 limits assumed): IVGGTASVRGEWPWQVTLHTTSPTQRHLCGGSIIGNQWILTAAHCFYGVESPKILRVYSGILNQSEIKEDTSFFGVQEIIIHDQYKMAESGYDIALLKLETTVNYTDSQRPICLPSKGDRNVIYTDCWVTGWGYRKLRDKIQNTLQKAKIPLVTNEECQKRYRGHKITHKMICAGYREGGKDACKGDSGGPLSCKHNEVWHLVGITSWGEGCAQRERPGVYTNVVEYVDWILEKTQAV
T1 sequence (P03951 19-387 partner limits assumed): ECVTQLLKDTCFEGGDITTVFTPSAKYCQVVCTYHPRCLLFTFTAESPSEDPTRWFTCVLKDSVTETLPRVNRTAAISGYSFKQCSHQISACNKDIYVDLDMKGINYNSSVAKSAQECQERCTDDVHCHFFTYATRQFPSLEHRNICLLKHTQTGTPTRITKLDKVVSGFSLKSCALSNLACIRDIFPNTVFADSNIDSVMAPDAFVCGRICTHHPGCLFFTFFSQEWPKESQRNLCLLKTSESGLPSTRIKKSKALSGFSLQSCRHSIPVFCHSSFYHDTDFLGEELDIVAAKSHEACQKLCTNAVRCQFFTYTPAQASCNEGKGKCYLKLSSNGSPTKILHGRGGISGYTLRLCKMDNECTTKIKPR

human and animal plasma = assay: Anticoagulatory activity: activated partial thromboplastin time (aPTT) in plasma; conditions: in vitro in plasma, C.K. Prest kit, 37° C. for 3 minutes; plasma species of Table B not stated
Outline: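 Citrated plasma (1:9, 0.11 M citrate; 4000 g, 15 min) from human, mouse, rat, rabbit, pig or dog. Value is concentration giving 1.5-fold aPTT prolongation.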

human plasmin = target: T2, human plasmin (Homo sapiens, UniProt P00747); assay: Measurement of plasmin inhibition (fluorogenic peptide substrate); conditions: plasmin from Kordia, substrate MeOSuc-Ala-Phe-Lys-AMC, 30 min at 22° C.
T2 construct: purchased Kordia
T2 sequence (P00747 581-810 limits assumed): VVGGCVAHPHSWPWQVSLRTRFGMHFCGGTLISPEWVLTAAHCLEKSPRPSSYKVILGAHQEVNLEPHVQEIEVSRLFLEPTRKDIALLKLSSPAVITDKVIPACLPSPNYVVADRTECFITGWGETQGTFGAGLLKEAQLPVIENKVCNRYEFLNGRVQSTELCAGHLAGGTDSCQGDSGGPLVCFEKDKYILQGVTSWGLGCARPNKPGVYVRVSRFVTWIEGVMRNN
T2 sequence (P00747 97-580 partner limits assumed): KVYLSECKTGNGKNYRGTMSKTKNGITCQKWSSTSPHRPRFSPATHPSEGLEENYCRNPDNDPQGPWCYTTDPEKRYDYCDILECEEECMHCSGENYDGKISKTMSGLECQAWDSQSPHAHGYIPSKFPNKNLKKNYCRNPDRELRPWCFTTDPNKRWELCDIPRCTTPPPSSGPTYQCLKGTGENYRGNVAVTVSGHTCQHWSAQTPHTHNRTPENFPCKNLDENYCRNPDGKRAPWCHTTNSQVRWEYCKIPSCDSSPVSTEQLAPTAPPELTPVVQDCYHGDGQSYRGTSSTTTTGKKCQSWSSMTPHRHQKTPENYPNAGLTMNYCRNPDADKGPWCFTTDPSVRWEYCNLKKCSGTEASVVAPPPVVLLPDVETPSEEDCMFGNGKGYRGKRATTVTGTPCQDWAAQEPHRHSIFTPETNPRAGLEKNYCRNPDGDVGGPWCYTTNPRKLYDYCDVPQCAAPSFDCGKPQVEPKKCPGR
Method: The plasmin inhibition of the inventive substances is determined using a biochemical test system which utilizes the reaction of a peptidic plasmin substrate to determine the enzymatic activity of human plasmin. Here, plasmin cleaves from the peptic plasmin substrate the C-terminal aminomethylcoumarin (AMC), the fluorescence of which is measured. The determinations are carried out in microtitre plates.
Test substances are dissolved in dimethyl sulphoxide and serially diluted in dimethyl sulphoxide (3000 μM to 0.0078 μM; resulting final concentrations in the test: 50 μM to 0.00013 μM). In each case 1 μl of the diluted substance solutions are placed into the wells of white microtitre plates from Greiner (384 wells). Subsequently, the following are added successively: 20 μl of assay buffer (50 mmol/1 Tris buffer pH 7.4; 100 mmol/1 sodium chloride; 5 mmol/1 calcium chloride; 0.1% bovine serum albumin) and 20 μl of plasmin from Kordia (0.3 μg/ml in assay buffer). After 15 min of incubation, the enzyme reaction is started by addition of 20 μl of the plasmin substrate MeOSuc-Ala-Phe-Lys-AMC dissolved in assay buffer (150 μM in assay buffer) from Bachem, the mixture is incubated at room temperature (22° C.) for 30 min and fluorescence is then measured (excitation: 360 nm, emission: 460 nm). The measured emissions of the test batches with test substance are compared to those of control batches without test substance (only dimethyl sulphoxide instead of test substance in dimethyl sulphoxide), and the IC50 values are calculated from the concentration/activity relationships.

Compound	IC50 (human factor XIa) [nM]	IC50 (human plasmin) [nM]	aPTT (concentration of test substance which brings about a 1.5-fold extension of the aPTT) (human and animal plasma) [µmol/L]
Cc1nc(C(=O)NC2CCC2)ccc1-c1ccc(C[C@H](NC(=O)[C@H]2CC[C@H](CN)CC2)C(=O)Nc2ccc3cn[nH]c3c2)cc1 [Example 34, N-alpha-{[trans-4-(Aminomethyl)cyclohexyl]carbonyl}-4-[6-(cyclobutylcarbamoyl)-2-methylpyridin-3-yl]-N-1H-indazol-6-yl-L-phenylalaninamide hydrochloride]	8.2	0.9	0.41
Cc1nc(C(=O)NC(C)C(F)(F)F)ccc1-c1ccc(C[C@H](NC(=O)[C@H]2CC[C@H](CN)CC2)C(=O)Nc2ccc3cn[nH]c3c2)cc1 (stereo partly drawn) [Example 35, N-alpha-{[trans-4-(Aminomethyl)cyclohexyl]carbonyl}-N-1H-indazol-6-yl-4-{2-methyl-6-[(1,1,1-trifluoropropan-2-yl)carbamoyl]pyridin-3-yl}-L-phenylalaninamide hydrochloride]	8.7	1.1	0.49
Cc1nc(C(=O)NC(C)C(F)(F)F)ccc1-c1ccc(C[C@H](NC(=O)[C@H]2CC[C@H](CN)CC2)C(=O)Nc2ccc3[nH]c(=O)[nH]c3c2)cc1 (stereo partly drawn) [Example 36, N-alpha-{[trans-4-(Aminomethyl)cyclohexyl]carbonyl}-4-{2-methyl-6-[(1,1,1-trifluoropropan-2-yl)carbamoyl]pyridin-3-yl}-N-(2-oxo-2,3-dihydro-1H-benzimidazol-5-yl)-L-phenylalaninamide hydrochloride]	11	1.2	0.21
Cc1nc(C(=O)NC2CCC2)ccc1-c1ccc(C[C@H](NC(=O)[C@H]2CC[C@H](CN)CC2)C(=O)Nc2ccc3[nH]c(=O)[nH]c3c2)cc1 [Example 37, N-alpha-{[trans-4-(Aminomethyl)cyclohexyl]carbonyl}-4-[6-(cyclobutylcarbamoyl)-2-methylpyridin-3-yl]-N-(2-oxo-2,3-dihydro-1H-benzimidazol-5-yl)-L-phenylalaninamide hydrochloride]	13	1.5	0.2

The next lines start with results.

IC50 (human factor XIa) [nM]	IC50 (human plasmin) [nM]	Compound	aPTT (concentration of test substance which brings about a 1.5-fold extension of the aPTT) (human and animal plasma) [µmol/L]
14	0.8	Cc1nc(C(=O)NC(C)C)ccc1-c1ccc(C[C@H](NC(=O)[C@H]2CC[C@H](CN)CC2)C(=O)Nc2cc(Cl)c3oc(=O)[nH]c3c2)cc1 [Example 38, N-alpha-{[trans-4-(Aminomethyl)cyclohexyl]carbonyl}-N-(7-chloro-2-oxo-2,3-dihydro-1,3-benzoxazol-5-yl)-4-[6-(isopropylcarbamoyl)-2-methylpyridin-3-yl]-L-phenylalaninamide hydrochloride]	0.99
4.3	1.2	Cc1nc(C(=O)NC(C)C)ccc1-c1ccc(C[C@H](NC(=O)[C@H]2CC[C@H](CN)CC2)C(=O)Nc2ccc3c(=O)[nH][nH]c3c2)cc1 [Example 39, N-alpha-{[trans-4-(Aminomethyl)cyclohexyl]carbonyl}-4-[6-(isopropylcarbamoyl)-2-methylpyridin-3-yl]-N-(3-oxo-2,3-dihydro-1H-indazol-6-yl)-L-phenylalaninamide hydrochloride]	0.27
